Measurements: US9708336B2, “Metallo-beta-lactamase inhibitors” (priority 2014, dated 2017)
Like-named read-outs stand apart in the source and are kept apart here.

Assays:
NDM-1 = NDM-1 (Klebsiella pneumoniae, UniProt C7C422); assay: biochemical; type: biochemical; conditions: read-out: NDM-1 IC50
IMP-1 = IMP-1 (Serratia marcescens, UniProt P52699); assay: biochemical; type: biochemical; conditions: read-out: IMP-1 IC50
Experimental: Enzyme Activity: Determination of IC50
The Class B enzyme activities were measured in the presence of the test inhibitor in a fluorescence assay against a commercially available substrate consisting of a cephalosporin core linking 7-hydroxycoumarin to fluorescein (CCF2-FA). The enzyme (NDM-1, IMP-1 or VIM-1) and the substrate were diluted in 100 mM KH2PO4 buffer (pH 7) containing 0.005% Tween-20 and 10 μM ZnSO4. […] The test inhibitor was dissolved in dimethylsulfoxide and diluted 1:50 in the assay, resulting in a final concentration range of 20 uM to 0.00063 uM. In a 384-well microplate, the test inhibitor was incubated with the metallo-β-lactamase enzyme and the substrate for 2 hours at 25° C. Fluorescence at 460 nm following excitation at 405 nm was measured. The IC50 value was determined from semi-logarithmic plots of enzyme inhibition versus inhibitor concentration, with a curve generated using a 4-parameter fit.

VIM-1 = VIM-1 (Pseudomonas aeruginosa (strain ATCC 15692 / DSM 22644 / CIP 104116 / JCM 14847 / LMG 12228 / 1C / PRS 101 / PAO1), UniProt A0A0F7KYQ8); assay: Enzyme activity: determination of IC50, fluorescence assay with CCF2-FA substrate (VIM-1); type: biochemical
[1] = tested on: Escherichia coli expressing NDM-1 (CLB30016); assay: Antibiotic potentiation activity: synergistic concentration (MITC95) with imipenem, OD600 growth; type: cell-based; conditions: for Escherichia coli expressing NDM-1 (CLB 30016) MITC95: concentration giving 95% inhibition of bacterial growth
Procedure, shortened: (§1)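 CLB30005 was precultured on Mueller Hinton agar with 8 ug/ml imipenem, the other strains on trypticase soy agar with 5% sheep blood, overnight at 35 °C. Saline suspensions diluted 1:100 in 1.1× CAMHB received compound and 4 μg/ml imipenem, then 22–24 h at 35 °C before absorbance reading.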

[2] = tested on: Klebsiella pneumoniae expressing VIM-1 (IHMA599644); assay: as above; type: cell-based; conditions: for Klebsiella pneumoniae expressing VIM-1 (IHMA 599644) MITC95: concentration giving 95% inhibition of bacterial growth
Procedure, shortened: as §1

[3] = tested on: Serratia marcescens expressing IMP-1 (CL5741); assay: as above; type: cell-based; conditions: for Serratia marcescens expressing IMP-1 (CL5741) MITC95: concentration giving 95% inhibition of bacterial growth
Procedure, shortened: as §1

[4] = NDM-1 enzyme, CCF2-FA substrate
[5] = IMP-1 enzyme, CCF2-FA substrate
[6] = VIM-1 enzyme, CCF2-FA substrate, read-out: VIM-1 IC50
[7] = (CLB30016, NDM-1), 95% growth inhibition
[8] = Klebsiella pneumoniae IHMA599644 (VIM-1), 95% growth inhibition
[9] = Serratia marcescens CL5741 (IMP-1), 95% growth inhibition
[10] = fluorescence assay with CCF2-FA substrate
[11] = fluorescence assay with CCF2-FA substrate, read-out: VIM-1 IC50
[12] = CLB30016 (NDM-1), 95% inhibition of bacterial growth
[13] = IHMA599644 (VIM-1), 95% inhibition of bacterial growth
[14] = CL5741 (IMP-1), 95% inhibition of bacterial growth

IMP-1, sequence (P52699 whole entry, looked up): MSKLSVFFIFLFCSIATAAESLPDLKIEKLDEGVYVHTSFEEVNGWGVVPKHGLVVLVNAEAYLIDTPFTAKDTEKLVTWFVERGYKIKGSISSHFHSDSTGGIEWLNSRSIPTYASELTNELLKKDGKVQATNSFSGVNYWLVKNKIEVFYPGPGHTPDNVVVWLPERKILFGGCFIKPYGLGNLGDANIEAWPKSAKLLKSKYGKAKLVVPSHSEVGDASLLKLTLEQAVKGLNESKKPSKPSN
NDM-1, sequence (C7C422 whole entry, looked up, species assumed): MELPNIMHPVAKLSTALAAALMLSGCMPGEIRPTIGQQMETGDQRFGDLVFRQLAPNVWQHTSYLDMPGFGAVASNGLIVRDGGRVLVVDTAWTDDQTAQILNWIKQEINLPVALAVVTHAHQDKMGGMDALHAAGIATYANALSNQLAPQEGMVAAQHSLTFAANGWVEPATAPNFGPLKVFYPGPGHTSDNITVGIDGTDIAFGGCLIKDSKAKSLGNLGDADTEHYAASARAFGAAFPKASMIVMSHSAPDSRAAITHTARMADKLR

Structure (SMILES)	IC50 (NDM-1; [4]) [nM]	IC50 (IMP-1; [5]) [nM]	IC50 (VIM-1; [6]) [nM]	Escherichia coli MITC95 [1, 7] [µM]	Klebsiella pneumoniae MITC95 [2, 8] [µM]	Serratia marcescens MITC95 [3, 9] [µM]	IC50 (NDM-1; [10]) [nM]	IC50 (IMP-1; [10]) [nM]	IC50 (VIM-1; [11]) [nM]	Escherichia coli expressing NDM-1 (CLB 30016) MITC95 [1] [µM]	Klebsiella pneumoniae expressing VIM-1 (IHMA 599644) MITC95 [2] [µM]	Serratia marcescens expressing IMP-1 (CL5741) MITC95 [3] [µM]	Escherichia coli MITC95 [1, 12] [µM]	Klebsiella pneumoniae MITC95 [2, 13] [µM]	Serratia marcescens MITC95 [3, 14] [µM]	other results
Nc1ccc(-c2ccc(C(F)(F)F)c(S(N)(=O)=O)c2-c2nnn[nH]2)nc1 [Example 562, 3-(5-aminopyridin-2-yl)-2-(1H-tetrazol-5-yl)-6-(trifluoromethyl)benzenesulfonamide]	5	7.55	2.35	0.5859	3.125	0.3906	–	–	–	–	–	–	–	–	–	–
Nc1ccc(-c2ccc(CCC3CCNCC3)c(S(N)(=O)=O)c2-c2nnn[nH]2)cn1 [Example 581, 3-(6-aminopyridin-3-yl)-6-(2-(piperidin-4-yl)ethyl)-2-(1H-tetrazol-5-yl)benzenesulfonamide]	8.23	268	36.8	0.3906	12.5	6.25	–	–	–	–	–	–	–	–	–	–
N=C(N)N1CCC(c2ccc(-c3cccc(S(N)(=O)=O)c3-c3nn[nH]n3)cc2)CC1 [Example 32, 4-(3′-Sulfamoyl-2′-(2H-tetrazol-5-yl)-[1,1′-biphenyl]-4-yl)piperidine-1-carboximidamide]	–	–	–	–	–	–	3.46	18	77.8	0.5859	25	0.7813	–	–	–	–
NS(=O)(=O)c1nccc(N2CCC(N3CCNCC3)CC2)c1-c1nnn[nH]1 [Example 227, 4-(4-piperazin-1-ylpiperidin-1-yl)-3-(1H-tetrazol-5-yl)pyridine-2-sulfonamide]	–	–	–	–	–	–	888	7070	261	3.125	6.25	75	–	–	–	–
CC(C1CCN(c2ccnc(S(N)(=O)=O)c2-c2nnn[nH]2)CC1)N1CCOCC1 (stereo not drawn) [Example 223, 4-[4-(1-morpholin-4-ylethyl)piperidin-1-yl]-3-(1H-tetrazol-5-yl)pyridine-2-sulfonamide]	–	–	–	–	–	–	157	1300	583	4.688	200	25	–	–	–	–
NC1(C2CCN(c3ccc(C(F)(F)F)c(S(N)(=O)=O)c3-c3nnn[nH]3)C2)CC1 (stereo not drawn) [Example 766, 3-[3-(1-aminocyclopropyl)pyrrolidin-1-yl]-2-(1H-tetrazol-5-yl)-6-(trifluoromethyl) benzenesulfonamide]	–	–	–	–	–	–	134	120	–	–	–	–	25	12.5	25	IC50 (VIM-1; VIM-1 IC50, fluorescence assay with CCF2-FA substrate): 8.52 nM
CC(N[C@H]1CC[C@H](c2ccc(C(F)(F)F)c(S(N)(=O)=O)c2-c2nnn[nH]2)CC1)C1CCNCC1 (stereo partly drawn) [Example 683, 3-{4-[(1-piperidin-4-ylethyl)amino]cyclohexyl}-2-(1H-tetrazol-5-yl)-6-(trifluoromethyl)benzene sulfonamide]	31.5	154	28.1	3.125	50	12.5	–	–	–	–	–	–	–	–	–	–
Nc1ncc(-c2ccc(C(F)(F)F)c(S(N)(=O)=O)c2-c2nnn[nH]2)cn1 [Example 475, 3-(2-aminopyrimidin-5-yl)-2-(1H-tetrazol-5-yl)-6-(trifluoromethyl)benzenesulfonamide]	–	–	–	–	–	–	–	–	–	–	–	–	–	–	–	IC50 (NDM-1; NDM-1 enzyme, CCF2-FA fluorescence assay): 5.13 nM; IC50 (IMP-1; IMP-1 enzyme, CCF2-FA fluorescence assay): 13.7 nM; IC50 (VIM-1; VIM-1 IC50, VIM-1 enzyme, CCF2-FA fluorescence assay): 1.92 nM; Escherichia coli MITC95 ([1]; Escherichia coli expressing NDM-1 (CLB30016), 95% growth inhibition): 0.7813 µM; Klebsiella pneumoniae MITC95 ([2]; Klebsiella pneumoniae expressing VIM-1 (IHMA599644), 95% growth inhibition): 3.125 µM; Serratia marcescens MITC95 ([3]; Serratia marcescens expressing IMP-1 (CL5741), 95% growth inhibition): 0.7813 µM
NS(=O)(=O)c1c(C(F)(F)F)ccc(N2CCC(N3CCNCC3)CC2)c1-c1nnn[nH]1 [Example 780, 3-(4-piperazin-1-yl-1-piperidyl)-2-(1H-tetrazol-5-yl)-6-(trifluoromethyl) benzenesulfonamide]	–	–	–	–	–	–	17.7	31.7	0.274	–	–	–	1.563	2.344	1.563	–
NS(=O)(=O)c1c(C(F)(F)F)ccc(N2CCC(N3CCNCC3)C2)c1-c1nnn[nH]1 (stereo not drawn) [Example 770, 3-(3-piperazin-1-ylpyrrolidin-1-yl)-2-(1H-tetrazol-5-yl)-6-(trifluoromethyl) benzenesulfonamide]	–	–	–	–	–	–	366	251	7.51	–	–	–	50	3.125	50	–
